Measurements reported in the supplement of paper PMC10307832.

Experiments:
Assay in all cases: relative viability (nuclei count vs DMSO), 5 days (fraction); higher = more cells survive
[1] = compound: Cc1nc(Nc2ncc(C(=O)Nc3c(C)cccc3Cl)s2)cc(N2CCN(CCO)CC2)n1 [Dasatinib] + CC1(C)CCC(c2ccc(Cl)cc2)=C(CN2CCN(c3ccc(C(=O)NS(=O)(=O)c4ccc(N[C@H](CCN5CCOCC5)CSc5ccccc5)c(S(=O)(=O)C(F)(F)F)c4)cc3)CC2)C1 [Navitoclax] (partner 0.5 µM)
In short: (§1)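 For relative viability, nuclei counts in treated wells were divided by those in vehicle wells. Lung cancer cell lines had been pin-tool dosed in 1536-well plates the day after seeding and cultured for 5 days, then fixed and stained in one step (final 0.05% Triton X-100, 1% formaldehyde, 1 ug/ml Hoechst) and imaged at 4×. Doses were one drug alone or a fixed anchor-drug dose plus five library-drug doses (not always all listed) in √10 steps, and values are duplicate-plate medians.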

[2] = compound: C1CC1C(=O)NC2=NNC3=C2C=CC(=C3)C4=CC(=CC=C4)C(=O)NC5CC5 [XMD13-2] + CC(C)C[C@H](NC(=O)[C@H](Cc1ccccc1)NC(=O)c1cnccn1)B(O)O [Bortezomib] (partner 0.002 µM)
In short: as §1

[3] = compound: Cc1ccc(C(=O)Nc2cccc(C(F)(F)F)c2)cc1Nc1cncc(C(N)=O)c1 [ALW-II-49-7] + C[C@]1(O)C[C@@H](c2nc(-c3ccc4ccc(-c5ccccc5)nc4c3)c3c(N)nccn32)C1 [Linsitinib] (partner 1 µM)
In short: as §1

[4] = compound: C1CC1C(=O)NC2=NNC3=C2C=CC(=C3)C4=CC(=CC=C4)C(=O)NC5CC5 [XMD13-2] + NC(=O)Nc1cc(-c2cccc(F)c2)sc1C(=O)N[C@H]1CCCNC1 [AZD7762] (partner 0.2 µM)
In short: as §1

| Cell Line | relative viability ([1]; first compound 0.005 µM) | relative viability ([1]; first compound 0.01581 µM) | relative viability ([1]; first compound 0.05 µM) | relative viability ([1]; first compound 0.1581 µM) | relative viability ([1]; first compound 0.5 µM) | relative viability ([2]; first compound 0.05 µM) | relative viability ([2]; first compound 0.1581 µM) | relative viability ([2]; first compound 0.5 µM) | relative viability ([2]; first compound 1.581 µM) | relative viability ([2]; first compound 5 µM) | relative viability ([3]; first compound 0.08 µM) | relative viability ([3]; first compound 0.253 µM) | relative viability ([3]; first compound 0.8 µM) | relative viability ([3]; first compound 2.53 µM) | relative viability ([3]; first compound 8 µM) | relative viability ([4]; first compound 0.05 µM) | relative viability ([4]; first compound 0.1581 µM) | relative viability ([4]; first compound 0.5 µM) | relative viability ([4]; first compound 1.581 µM) | relative viability ([4]; first compound 5 µM) |
| --- | --- | --- | --- | --- | --- | --- | --- | --- | --- | --- | --- | --- | --- | --- | --- | --- | --- | --- | --- | --- |
| NCI-H441 | 0.579 | 0.544 | 0.456 | 0.241 | 0.135 | 0.652 | 0.49 | 0.524 | 0.464 | 0.594 | 0.529 | 0.61 | 0.432 | 0.496 | 0.508 | 1.17 | 1.29 | 1.18 | 1.14 | 1.04 |
| NCI-H460 | 0.828 | 0.912 | 0.815 | 0.563 | 0.217 | 1.38 | 1.09 | 1.15 | 1.18 | 1.34 | 0.464 | 0.667 | 0.766 | 0.566 | 0.566 | 0.708 | 0.751 | 0.633 | 0.66 | 0.683 |
| NCI-H596 | 0.818 | 0.707 | 0.726 | 0.253 | 0.187 | 1.1 | 0.881 | 1.34 | 1.11 | 1.2 | 1.1 | 1.08 | 1.11 | 1.06 | 1.1 | 1.14 | 0.945 | 1.09 | 1.18 | 1.2 |
| NCI-H647 | 0.983 | 0.731 | 0.392 | 0.307 | 0.152 | 1.59 | 1.16 | 1.29 | 1.11 | 0.549 | 1.1 | 1.35 | 1.03 | 1.04 | 1.05 | 0.558 | 0.521 | 0.532 | 0.406 | 0.248 |
| NCI-H727 | 0.404 | 0.266 | 0.186 | 0.139 | 0.143 | 0.996 | 0.936 | 0.792 | 0.982 | 1.03 | 0.303 | 0.331 | 0.316 | 0.283 | 0.37 | 0.807 | 0.665 | 0.583 | 0.505 | 0.776 |
| NCI-H838 | 1.03 | 0.791 | 0.709 | 0.389 | 0.21 | 1.15 | 0.886 | 1.03 | 0.81 | 0.986 | 1.06 | 1.08 | 1.06 | 1.14 | 1.15 | 0.986 | 1.04 | 1.06 | 0.967 | 0.954 |
| NCI-H1355 | 0.858 | 0.653 | 0.92 | 0.534 | 0.376 | 1.3 | 1.32 | 1.18 | 1.19 | 1.28 | 0.731 | 0.872 | 0.797 | 0.752 | 0.758 | 0.854 | 0.881 | 0.787 | 0.636 | 0.793 |
| NCI-H1437 | 1.09 | 1.05 | 1.09 | 0.999 | 0.432 | 0.667 | 0.551 | 0.658 | 0.527 | 0.597 | 0.935 | 1.04 | – | 0.942 | 0.754 | 1.24 | 1.14 | 1.18 | 1.09 | 1.17 |
| NCI-H1651 | 0.962 | 0.806 | 0.759 | 0.76 | 0.611 | 1.02 | 0.914 | 0.946 | 0.92 | 0.965 | 0.928 | 1.02 | 0.973 | 0.884 | 0.996 | 0.515 | 0.577 | 0.486 | 0.462 | 0.511 |
| NCI-H1666 | 0.948 | 0.895 | 0.917 | 0.617 | 0.324 | 0.893 | 0.838 | 1.02 | 0.763 | 0.468 | 0.81 | 0.794 | 0.81 | 0.842 | 0.781 | 0.849 | 0.89 | 0.927 | 0.81 | 0.807 |
| NCI-H1703 | 0.567 | 0.38 | 0.238 | 0.17 | 0.146 | 0.47 | 0.597 | 0.407 | 0.228 | 0.195 | 0.564 | 0.78 | 0.567 | 0.277 | 0.224 | 0.124 | 0.131 | 0.125 | – | 0.116 |
| NCI-H1734 | 0.729 | 0.695 | 0.629 | 0.404 | 0.374 | 1.35 | 0.954 | 0.887 | 0.729 | 0.768 | 0.927 | 0.911 | 0.872 | 0.815 | 0.828 | 0.66 | 0.673 | 0.548 | 0.501 | 0.493 |
| NCI-H1755 | 0.697 | 0.591 | 0.501 | 0.273 | 0.142 | 0.992 | 1.02 | 0.984 | 0.934 | 1.03 | 1.05 | 1.14 | 1.01 | 0.978 | 0.855 | 0.419 | 0.431 | 0.46 | 0.449 | 0.413 |
